Assay type: in vivo, Sprague–Dawley (SD) rats
Conditions: rat plasma, single oral gavage of 10 mL/kg ABS, n = 6
Procedure: All rats underwent an acclimation period of a week and overnight fasting with free access to water only. Rats were randomly selected and administered the ABS (n = 6, biological replicates). Each rat was administered with a single ABS oral gavage dose of 10 mL/kg. Blood samples (approximately 150 μL) were collected from the orbital venous plexus using heparinized tubes at predefined time points (0, 0.033, 0.083, 0.167, 0.25, 0.5, 0.75, 1, 2, 4, 6, 8, 10, 12, 24, 36, 48, and 60 h) post-administration. The technical personnel were proficiently trained in performing orbital venous plexus blood draws, employing a technique designed to minimize discomfort to the animals. All rats received an intragastric administration of 1 mL saline at 6 h post-dosing, after which they were provided with unrestricted access to food and water for the remainder of the experimental period. […]
Chromatographic separation was performed on a Thermo BDS Hypersil C18 column (100 × 4.6 mm, 3 µm) with linear gradient elution at a flow rate of 0.7 mL/min using methanol and water both containing 0.1% acetic acid as the mobile phases A and B, respectively. […] The quantification analysis was conducted under multiple reaction monitoring mode with argon collision gas pressure set at 0.2 Pa for collision-induced dissociation. […]

| Compound | t1/2 | Tmax |
| --- | --- | --- |
| Cc1cc(O)c2c(c1)C(=O)c1cc(O)cc(O)c1C2=O [EM, emodin] | 4.63 ± 1.53 h | – |
| O=C1C[C@@H](c2ccc(O[C@@H]3O[C@H](CO)[C@@H](O)[C@H](O)[C@H]3O)cc2)Oc2cc(O)ccc21 [LI, liquiritin] | – | 0.20 ± 0.03 h |
